# Measurements reported in patent US20140057915A1, “KINASE INHIBITORS” (TOPIVERT PHARMA LIMITED, priority 2012, published 2014).
# Legend:
# d-U937 cells = experiment: Cell viability: MTT assay; assay type: cell-based, human; details: 1 μg/mL
# Procedure, shortened: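 Differentiated U937 cells exposed to compound at 1 or 10 μg/mL, either 4 h in 5% FCS or 24 h in 10% FCS RPMI1640. MTT then added for 1 h, formazan dissolved in DMSO and read at 550 nm. Viability loss given as % versus 0.5% DMSO vehicle; apparent gains appear negative.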
# IL-8 release, PBMCs = experiment: LPS-induced IL-8 release in PBMC cells; assay type: cell-based; details: Homo sapiens, LPS stimulated, read-out: IC50 Values for Inhibition of Cytokine Release, PBMCs, IL-8
# Procedure, shortened: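 PBMCs from healthy donors pretreated with compound for 2 h, then stimulated with 1 ng/ml LPS (E. coli 0111:B4) for 24 h at 37 °C, 5% CO2. Supernatant IL-8 and TNFα measured by sandwich ELISA with fluorescence read-out.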
# HRV16 in MRC5 cells = experiment: HRV16 induced CPE in MRC5 cells; assay type: cell-based; details: Human rhinovirus sp., HRV-16
# Method: (j) Assessment of HRV16 Induced CPE in MRC5 Cells
# MRC-5 cells are infected with HRV16 at an MOI of 1n DMEM containing 5% FCS and 1.5 mM magnesium chloride, followed by incubation for 1 hr at 33° C. to promote adsorption. The supernatants are aspirated, and then fresh media added followed by incubation for 4 days. Where appropriate, cells are pre-incubated with compound or DMSO for 2 hr, and the compounds and DMSO added again after washout of the virus.
# After washing, 1% SDS in distilled water (100 μL) is added to each well, and the plates are shaken lightly for 1-2 hr prior to reading the absorbance at 660 nm. The percentage inhibition for each well is calculated. The IC50 value is calculated from the concentration-response curve generated by the serial dilutions of the test compounds.
# GSK3α [1] = biological target: T1, GSK3α (Homo sapiens, UniProt P49840); experiment: GSK 3α enzyme inhibition (FRET), Method 2; assay type: biochemical; details: Table 4a2, different laboratory
# GSK3α [2] = biological target: T1, GSK3α; experiment: GSK 3α enzyme inhibition (FRET), Method 1; assay type: biochemical; details: Table 4a1
# Procedure, shortened: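 Steps: preincubate GSK3α with compound 2 hr at room temperature; start reaction with peptide and ATP for 1 hr; develop with site-specific protease for 1 hr; measure fluorescence and take the coumarin/fluorescein ratio as the phosphorylation level.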
# IL-8 release, HT29 cells = experiment: IL-1β-induced IL-8 release in HT29 cells; assay type: cell-based; details: Homo sapiens, HT-29; IL-1β stimulated; read-out: IC50 Values for Inhibition of Cytokine Release, HT29 cells, IL-8
# Method: (d) IL-1β-Induced IL-8 Release in HT29 Cells
# HT29 cells, a human colon adenocarcinoma cell line, are plated in a 96 well plate (24 hrs) and pre-treated with compounds at the desired concentration for 2 hours before addition of 5 ng/ml of IL-1β (Abeam) for 24 hours, Supernatants are harvested for IL-8 quantification by Sandwich ELISA (Duo-set, R&D System). The IC50 is determined from the dose response curve.
# IFN gamma release, PBMCs = experiment: IFN gamma release in CD3/CD28 stimulated PBMC cells; assay type: cell-based; details: Homo sapiens, read-out: IC50 Values for Inhibition of Cytokine Release, PBMCs, IFNγ
# T1 sequence (P49840 whole entry): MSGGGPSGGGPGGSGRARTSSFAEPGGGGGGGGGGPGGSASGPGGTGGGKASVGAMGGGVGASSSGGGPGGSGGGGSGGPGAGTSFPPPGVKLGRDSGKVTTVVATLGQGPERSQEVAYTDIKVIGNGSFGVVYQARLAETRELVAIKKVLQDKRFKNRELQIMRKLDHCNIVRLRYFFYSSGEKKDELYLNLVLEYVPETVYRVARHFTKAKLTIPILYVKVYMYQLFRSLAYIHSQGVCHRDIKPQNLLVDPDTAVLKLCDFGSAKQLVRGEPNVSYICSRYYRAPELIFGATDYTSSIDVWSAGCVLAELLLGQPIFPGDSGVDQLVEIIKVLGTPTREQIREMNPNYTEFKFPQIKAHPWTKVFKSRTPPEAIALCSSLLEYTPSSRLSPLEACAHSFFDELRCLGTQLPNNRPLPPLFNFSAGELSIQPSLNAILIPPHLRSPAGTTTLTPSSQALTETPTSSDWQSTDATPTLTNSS
compound,measurement,setting,value
"COc1cc(Nc2nccc(Oc3ccc(NC(=O)Nc4cc(C5CC5)nn4-c4ccc(C)cc4)c4ccccc34)n2)cc(C(=O)NCCN2CCOCC2)c1 [Example 50, 3-((4-((4-(3-(3-cyclopropyl-1-(p-tolyl)-1H-pyrazol-5-yl)ureido)naphthalen-1-yl)oxy)pyrimidin-2-yl)amino)-5-methoxy-N-(2-morpholinoethyl)benzamide]","Cell viability at time point in d-U937 cells, 4 h",d-U937 cells,"−ve (−ve and +ve indicate that the value is below and above respectively, the no significant effect threshold, defined as 30% inhibition at 1 μg/mL at the time point indicated)"
same,"Cell viability at time point in d-U937 cells, 24 h",d-U937 cells,"−ve (−ve and +ve indicate that the value is below and above respectively, the no significant effect threshold, defined as 30% inhibition at 1 μg/mL at the time point indicated)"
same,IC50,"IL-8 release, PBMCs",7.3 nM
same,IC50,HRV16 in MRC5 cells,6.8 nM
same,IC50,GSK3α [1],≥ 13300 nM
same,IC50,GSK3α [2],> 13300 nM
"C#Cc1cc(Nc2nccc(Oc3ccc(NC(=O)Nc4cc(C(C)(C)C)nn4-c4ccc(N(C)C)cc4)c4ccccc34)n2)cc(C(=O)NCCN2CCOCC2)c1 [Example 80, 3-((4-((4-(3-(3-(tert-Butyl)-1-(4-(dimethylamino)phenyl)-1H-pyrazol-5-yl)ureido)naphthalen-1-yl)oxy)pyrimidin-2-yl)amino)-5-ethynyl-N-(2-morpholinoethyl)-benzamide]",IC50,"IL-8 release, PBMCs",1.5 nM
same,IC50,"IL-8 release, HT29 cells",6.2 nM
same,IC50,GSK3α [1],≥ 12600 nM
same,IC50,"IFN gamma release, PBMCs",1.8 nM
"C#Cc1cc(Nc2nccc(Oc3ccc(NC(=O)Nc4cc(C(C)C)nn4-c4ccc(C)cc4)c4ccccc34)n2)cc(C(=O)NCCN2CCOCC2)c1 [Example 46, 3-ethynyl-5-((4-((4-(3-(3-isopropyl-1-(p-tolyl)-1H-pyrazol-5-yl)ureido)naphthalen-1-yl)oxy)pyrimidin-2-yl)amino)-N-(2-morpholinoethyl)benzamide]","Cell viability at time point in d-U937 cells, 4 h",d-U937 cells,"−ve (−ve and +ve indicate that the value is below and above respectively, the no significant effect threshold, defined as 30% inhibition at 1 μg/mL at the time point indicated)"
same,"Cell viability at time point in d-U937 cells, 24 h",d-U937 cells,"−ve (−ve and +ve indicate that the value is below and above respectively, the no significant effect threshold, defined as 30% inhibition at 1 μg/mL at the time point indicated)"
same,IC50,"IL-8 release, PBMCs",1.1 nM
same,IC50,"IL-8 release, HT29 cells",5.4 nM
same,IC50,GSK3α [1],11300 nM
same,IC50,"IFN gamma release, PBMCs",2.7 nM
"COc1ccc(-n2nc(C(C)C)cc2NC(=O)Nc2ccc(Oc3ccnc(Nc4cc(OC)cc(C(=O)NCCN5CCOCC5)c4)n3)c3ccccc23)cc1 [Example 53, 3-((4-((4-(3-(3-isopropyl-1-(4-methoxyphenyl)-1H-pyrazol-5-yl)ureido)naphthalen-1-yl)oxy)pyrimidin-2-yl)amino)-5-methoxy-N-(2-morpholinoethyl)benzamide]","Cell viability at time point in d-U937 cells, 4 h",d-U937 cells,"−ve (−ve and +ve indicate that the value is below and above respectively, the no significant effect threshold, defined as 30% inhibition at 1 μg/mL at the time point indicated)"
same,"Cell viability at time point in d-U937 cells, 24 h",d-U937 cells,"−ve (−ve and +ve indicate that the value is below and above respectively, the no significant effect threshold, defined as 30% inhibition at 1 μg/mL at the time point indicated)"
same,IC50,"IL-8 release, PBMCs",3.1 nM
same,IC50,HRV16 in MRC5 cells,2 nM
same,IC50,GSK3α [1],7260 nM
same,IC50,GSK3α [2],> 13000 nM
COc1cc(Nc2nccc(Oc3ccc(NC(=O)Nc4cc(C(F)(F)C(F)(F)F)nn4-c4ccc(C)cc4)c4ccccc34)n2)cc(C(=O)NCCN2CCOCC2)c1 [Example 9],"Cell viability at time point in d-U937 cells, 4 h",d-U937 cells,"−ve (−ve and +ve indicate that the value is below and above respectively, the no significant effect threshold, defined as 30% inhibition at 1 μg/mL at the time point indicated)"
same,"Cell viability at time point in d-U937 cells, 24 h",d-U937 cells,"−ve (−ve and +ve indicate that the value is below and above respectively, the no significant effect threshold, defined as 30% inhibition at 1 μg/mL at the time point indicated)"
same,IC50,"IL-8 release, PBMCs",2.3 nM
same,IC50,HRV16 in MRC5 cells,1.7 nM
same,IC50,GSK3α [1],6510 nM
same,IC50,"IFN gamma release, PBMCs",7.3 nM
same,IC50,GSK3α [2],8030 nM
